Measured values published in patent US20240059688A1, “CONOLIDINE ANALOGUES AS SELECTIVE ACKR3 MODULATORS FOR THE TREATMENT OF CANCER” (Luxembourg Institute of Health (LIH), priority 2020, published 2024).

Assays:
DOR = DOR (Homo sapiens, UniProt P41143); experiment: NanoBiT-based β-arrestin-2 recruitment assay, DOR; assay type: cell-based; set-up: expressed in transfected cells; host or cells: U87; details: concentration range 0.15 nM to 80 μM; reference Met-enkephalin
Procedure: The ability of the different molecules to activate the four opioid receptors MOR, DOR, KOR and NOP that are known to mediate in vivo analgesic effects was tested using the NanoBiT-based β-arrestin-2 recruitment assay in a concentration range of 0.15 nM to 80 μM. For each of these receptors a reference ligand corresponding to an endogenous opioid peptide i.e. Met-enkephalin, BAM22, Dynorphin A and Nociceptin, respectively was included.
Ligand-induced β-arrestin recruitment to chemokine and opioid receptors was monitored by NanoLuc complementation assay (NanoBiT, Promega). In brief, 1.2×10^6 U87 cells were plated in 10-cm culture dishes and 48 hours later co-transfected with pNBe vectors encoding GPCRs (ACKR3, MOR, DOR, KOR, or NOP) C-terminally tagged with SmBiT and human β-arrestin-1 (arrestin-2) or β-arrestin-2 (arrestin-3) N-terminally fused to LgBiT. 48 hours post-transfection cells were harvested, incubated 25 minutes at 37° C. with Nano-Glo Live Cell substrate diluted 200-fold and distributed into white 96-well plates (5×10^4 cells per well). Ligand-induced, β-arrestin to GPCRs was evaluated with a Mithras LB940 luminometer (Berthold Technologies, running on MicroWin 2010 5.19 software (Mikrotek Laborsysteme)) for 20 minutes.
For concentration-response curves (FIG. 2), the signal recorded with a saturating concentration of full agonist for each receptor was set as 100%. […]

CaV 3.2 = molecular target: T1, CaV 3.2 (Homo sapiens, UniProt O95180); experiment: CaV 3.2 calcium assay in stable human CaV3.2-HEK293 cells; assay type: cell-based; details: control agonist calcium chloride
T1 construct: expressed in transfected cells
T1 sequence (O95180 whole entry): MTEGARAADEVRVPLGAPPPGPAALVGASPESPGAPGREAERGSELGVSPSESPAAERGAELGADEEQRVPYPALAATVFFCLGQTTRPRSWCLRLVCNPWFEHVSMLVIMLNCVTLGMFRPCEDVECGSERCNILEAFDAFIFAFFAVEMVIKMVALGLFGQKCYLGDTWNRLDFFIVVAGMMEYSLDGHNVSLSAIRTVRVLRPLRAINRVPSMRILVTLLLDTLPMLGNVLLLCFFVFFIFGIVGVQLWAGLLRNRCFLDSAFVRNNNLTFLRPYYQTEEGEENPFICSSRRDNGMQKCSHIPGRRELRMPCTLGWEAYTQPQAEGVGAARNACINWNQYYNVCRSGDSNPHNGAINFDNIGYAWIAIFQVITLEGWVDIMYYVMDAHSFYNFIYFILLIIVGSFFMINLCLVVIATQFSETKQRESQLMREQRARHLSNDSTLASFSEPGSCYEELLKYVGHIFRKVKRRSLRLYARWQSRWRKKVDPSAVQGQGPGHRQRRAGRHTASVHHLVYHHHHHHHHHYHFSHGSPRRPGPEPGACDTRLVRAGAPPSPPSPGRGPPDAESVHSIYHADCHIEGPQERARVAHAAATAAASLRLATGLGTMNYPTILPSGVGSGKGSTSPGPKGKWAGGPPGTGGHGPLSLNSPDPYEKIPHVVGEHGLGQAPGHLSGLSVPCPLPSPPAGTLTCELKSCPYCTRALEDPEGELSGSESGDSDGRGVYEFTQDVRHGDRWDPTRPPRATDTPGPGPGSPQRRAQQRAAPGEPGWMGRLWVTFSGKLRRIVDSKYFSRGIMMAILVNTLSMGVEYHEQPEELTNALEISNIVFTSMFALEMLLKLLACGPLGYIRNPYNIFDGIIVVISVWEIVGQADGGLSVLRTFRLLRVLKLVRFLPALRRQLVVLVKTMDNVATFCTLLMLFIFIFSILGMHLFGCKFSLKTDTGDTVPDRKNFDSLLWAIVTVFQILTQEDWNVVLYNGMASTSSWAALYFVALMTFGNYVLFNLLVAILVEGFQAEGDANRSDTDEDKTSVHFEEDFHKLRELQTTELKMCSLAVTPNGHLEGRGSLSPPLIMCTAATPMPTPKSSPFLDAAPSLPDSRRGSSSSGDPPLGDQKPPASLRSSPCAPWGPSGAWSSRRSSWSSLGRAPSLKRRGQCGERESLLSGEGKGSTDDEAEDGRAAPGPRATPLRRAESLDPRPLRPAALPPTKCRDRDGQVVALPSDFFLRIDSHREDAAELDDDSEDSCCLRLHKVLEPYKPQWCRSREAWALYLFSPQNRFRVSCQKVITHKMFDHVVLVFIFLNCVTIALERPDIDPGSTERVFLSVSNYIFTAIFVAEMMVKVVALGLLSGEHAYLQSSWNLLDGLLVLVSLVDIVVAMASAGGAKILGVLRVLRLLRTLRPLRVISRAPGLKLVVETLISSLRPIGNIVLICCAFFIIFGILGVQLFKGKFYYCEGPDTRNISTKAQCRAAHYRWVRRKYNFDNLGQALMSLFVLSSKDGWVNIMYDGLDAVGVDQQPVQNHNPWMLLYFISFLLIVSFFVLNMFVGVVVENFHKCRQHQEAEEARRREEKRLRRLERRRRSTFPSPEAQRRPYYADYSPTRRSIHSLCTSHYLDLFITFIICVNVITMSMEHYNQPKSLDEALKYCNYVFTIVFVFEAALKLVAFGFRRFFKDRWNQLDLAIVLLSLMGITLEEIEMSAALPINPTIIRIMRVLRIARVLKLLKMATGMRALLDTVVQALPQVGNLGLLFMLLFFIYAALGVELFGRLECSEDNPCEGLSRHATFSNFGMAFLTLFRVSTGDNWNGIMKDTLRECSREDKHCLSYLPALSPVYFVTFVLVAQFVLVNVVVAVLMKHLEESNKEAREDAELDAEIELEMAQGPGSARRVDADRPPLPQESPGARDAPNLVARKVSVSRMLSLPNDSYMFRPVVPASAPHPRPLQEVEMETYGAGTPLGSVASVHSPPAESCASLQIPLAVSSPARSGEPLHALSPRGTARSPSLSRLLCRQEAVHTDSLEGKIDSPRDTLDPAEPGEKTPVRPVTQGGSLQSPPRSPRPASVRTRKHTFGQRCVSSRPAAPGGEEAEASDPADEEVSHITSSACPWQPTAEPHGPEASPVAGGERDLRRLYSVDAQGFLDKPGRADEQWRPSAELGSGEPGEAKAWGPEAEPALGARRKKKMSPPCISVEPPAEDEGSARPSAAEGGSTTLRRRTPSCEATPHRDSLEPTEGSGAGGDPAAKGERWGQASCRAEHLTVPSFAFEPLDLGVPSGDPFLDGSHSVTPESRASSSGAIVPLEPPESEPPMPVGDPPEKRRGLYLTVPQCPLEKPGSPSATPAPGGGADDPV
Procedure: Compounds were evaluated for kappa (KOR), mu (MOR), and delta (DOR) opioid receptor agonist and antagonist activity in three individual cell lines overexpressing Gαq16 (CHO-RD-HGA16, Molecular Devices) and the human kappa, mu, and delta opioid receptors, respectively. The day before the assay, cells were plated into 96-well black-walled assay plates at 30,000 cells/well in Ham's F12 supplemented with 10% fetal bovine serum, and 100 units of penicillin and streptomycin. The cells were incubated overnight at 37° C., 5% CO2. Prior to the assay, Calcium 5 dye (Molecular Devices) was reconstituted according to the manufacturer's instructions. The reconstituted dye was diluted 1:40 in pre-warmed (37° C.) assay buffer (1×HBSS, 20 mM HEPES, 2.5 mM probenecid, pH 7.4 at 37° C.). Growth medium was removed and the cells were gently washed with 100 μL of pre-warmed (37° C.) assay buffer. The cells were incubated for 45 minutes at 37° C., 5% CO2 in 200 μL of the diluted Calcium 5 dye. For the agonist screen, a single concentration of each test compound and receptor-specific controls (U69,593, DAMGO, and DPDPE for KOR, MOR, and DOR, respectively) were prepared at 10× the desired final concentration in 1% DMSO/assay buffer, aliquoted into a 96-well polystyrene plate, and warmed to 37° C. After the dye-loading incubation period, pretreatment solution was added to each well (25 μL of 9% DMSO/assay buffer) and, after 15 min, the plate was read with a FlexStation II (Molecular Devices). Calcium-mediated changes in fluorescence were monitored every 1.52 seconds over a 60 second time period, with the FlexStation II adding 50 μL of test compounds at the 19 second time point (excitation at 485 nm, detection at 525 nm). Peak kinetic reduction (SoftMax, Molecular Devices) relative fluorescence units (RFU) were used to calculate % control agonist Emax with the equation % Emax=(test compound RFU/control agonist RFU)×100. For the antagonist screens, the same procedure was followed except that the pretreatment solution consisted of the test compounds (prepared at […] the desired final concentration in 9% DMSO/assay buffer) and the FlexStation added the EC60 concentration (prepared at 10× the desired final concentration in 1% DMSO/assay buffer) of each respective control agonist. Peak RFU were used to calculate % control EC60 inhibition with the equation % inhibition=((EC60 RFU−test compound RFU)/EC60 RFU)×100. When IC50 determinations were made, the same antagonist screen procedure was followed except that cells were pretreated with 8-pt concentration-response curves of the test compounds. Peak RFU were plotted against the log of compound concentration using non-linear regression analysis to generate IC50 values (GraphPad Prism). Each test sample was analyzed in duplicate in two independent experiments.
Compounds were evaluated for activity at CaV 3.2 using stable human CaV3.2-HEK293 cells and the control agonist calcium chloride. The day before the assay, cells were plated into 96-well black-walled assay plates coated with poly-D-lysine in DMEM-F12 supplemented with 10% fetal bovine serum, 100 units penicillin/streptomycin, and 500 μM sodium pyruvate, and incubated at 37° C., 5% CO2 overnight. Prior to the assay, Calcium 5 dye (Molecular Devices) was reconstituted according to the manufacturer instructions. The reconstituted dye was diluted 1:10 in pre-warmed (37° C.) assay buffer (1×HBSS, […], […], pH 7.4 at 37° C.). The cells were incubated for 45 minutes at 37° C., 5% CO2 in 200 μL of the diluted Calcium 5 dye. Compounds were prepared as described above and the plate was read with a FLIPR Tetra (Molecular Devices). Calcium-mediated changes in fluorescence were monitored every 1 second over a 60 second time period, with the Tetra adding 25 μL of appropriate compound at the 10 second time point (excitation at 470-495 nm, detection at 515-575 nm). […]

DOR, sequence (P41143 whole entry): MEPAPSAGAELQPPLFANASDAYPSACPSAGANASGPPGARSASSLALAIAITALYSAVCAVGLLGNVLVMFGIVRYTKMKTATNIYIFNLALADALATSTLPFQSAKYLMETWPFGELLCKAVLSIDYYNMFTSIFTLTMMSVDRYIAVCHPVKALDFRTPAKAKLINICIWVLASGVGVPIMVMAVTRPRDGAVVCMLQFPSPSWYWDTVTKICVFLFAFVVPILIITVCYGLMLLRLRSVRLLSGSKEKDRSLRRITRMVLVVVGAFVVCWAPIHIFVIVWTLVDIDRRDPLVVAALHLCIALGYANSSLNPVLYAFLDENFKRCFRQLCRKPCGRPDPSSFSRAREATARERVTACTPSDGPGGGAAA

Row | activation of DOR (β-arrestin-2 recruitment) (DOR) | CaV 3.2 % CaCl2 Inhibition (CaV 3.2) [%] | Compound
1 | not active | −7 | C/C=C1/CN2CC[C@H]1C(=O)c1[nH]c3ccccc3c1C2 [WW-1, (4E,5R)-4-ethylidene-1,4,5,7-tetrahydro-2,5-ethanoazocino[4,3-b]indol-6(3H)-one]
2 | not active | 42 | C/C=C1/CN(CCCCC)CC[C@H]1C(=O)c1cc2ccccc2[nH]1 [WW-12, [(3E,4R)-3-ethylidene-1-pentylpiperidin-4-yl](1H-indol-2-yl)methanone]
